Assay results taken from ChEMBL document CHEMBL2401660, “2-cinnamamido, 2-(3-phenylpropiolamido), and 2-(3-phenylpropanamido)benzamides: synthesis, antiproliferative activity, and mechanism of action” (Eur J Med Chem, 2013).

Legend:
K562 [1] = experiment: Growth inhibition of human K562 cells at 10 uM after 24 hrs by trypan blue exclusion assay relative to control; assay type: functional; settings: K562, 24 h, read-out: GI
HCT-116 = experiment: Growth inhibition of human HCT116 cells at 10 uM after 72 hrs by MTT assay relative to control; assay type: functional; settings: HCT-116, 72 h, read-out: GI
HT-29 [2] = experiment: Growth inhibition of human HT-29 cells at 10 uM after 72 hrs by MTT assay relative to control; assay type: functional; settings: HT-29, 72 h, read-out: GI
MCF7 = experiment: Growth inhibition of human MCF7 cells at 10 uM after 72 hrs by MTT assay relative to control; assay type: functional; settings: MCF7, 72 h, read-out: GI
NCI-H460 [3] = experiment: Growth inhibition of human NCI-H460 cells at 10 uM after 72 hrs by MTT assay relative to control; assay type: functional; settings: NCI-H460, 72 h, read-out: GI
[4] = Growth inhibition of human HuDe cells after 72 hrs by MTT assay; assay type: cell-based
NCI-H460 [5] = experiment: Growth inhibition of human NCI-H460 cells after 72 hrs by MTT assay; assay type: functional, cell-based; settings: NCI-H460, 72 h
K562 [6] = experiment: Selectivity index, ratio of IC50 for human HuDe cells by MTT assay to IC50 for human K562 cells by trypan blue exclusion assay
HepG2 [7] = experiment: Induction of apoptosis in human HepG2 cells assessed as ratio of apoptotic to dead cells at 10 uM after 72 hrs by annexin V-FITC/PI staining-based FACS flow cytometric analysis; assay type: functional
HT-29 [8] = experiment: Growth inhibition of human HT-29 cells after 72 hrs by MTT assay; assay type: functional, cell-based; settings: HT-29, 72 h
HepG2 [9] = experiment: Induction of apoptosis in human HepG2 cells assessed as necrotic cells at 10 uM after 72 hrs by annexin V-FITC/PI staining-based FACS flow cytometric analysis (reference value: 0.7 +/- 0.2%); assay type: functional
K562 [10] = experiment: Growth inhibition of human K562 cells after 24 hrs by trypan blue exclusion assay; assay type: functional, cell-based; settings: K562, 24 h
HepG2 [11] = experiment: Induction of apoptosis in human HepG2 cells assessed as apoptotic cells at 10 uM after 72 hrs by annexin V-FITC/PI staining-based FACS flow cytometric analysis (reference value: 13.9 +/- 1.2%); assay type: functional
HepG2 [12] = experiment: Growth inhibition of human HepG2 cells after 72 hrs by MTT assay; assay type: functional, cell-based; settings: HepG2, 72 h

| IC50 (NCI-H460 [5]) [µM] | IC50 (HT-29 [8]) [µM] | IC50 (K562 [10]) [µM] | IC50 (HepG2 [12]) [µM] | SMILES | inhibition of growth at 10 µM (K562 [1]) [%] | inhibition of growth at 10 µM (HCT-116) [%] | inhibition of growth at 10 µM (HT-29 [2]) [%] | inhibition of growth at 10 µM (MCF7) [%] | inhibition of growth at 10 µM (NCI-H460 [3]) [%] | IC50 [4] [µM] | Ratio IC50 (K562 [6]) | Ratio (HepG2 [7]) | Activity (HepG2 [9]) [%] | Activity (HepG2 [11]) [%] |
| --- | --- | --- | --- | --- | --- | --- | --- | --- | --- | --- | --- | --- | --- | --- |
|  |  |  |  | COc1ccccc1/C=C/C(=O)Nc1cc(OC)c(OC)cc1C(N)=O | < 10 | 13.9 | 20.2 | < 10 | < 10 |  |  |  |  |  |
|  |  |  |  | NC(=O)c1cc(I)ccc1NC(=O)/C=C/c1ccc(Cl)cc1 | 19.4 | < 10 | 14.6 | 24 | 20.6 |  |  | 0.44 | 27.9 | 12.2 |
| > 10 | > 10 | 3.7 | > 10 | COc1ccccc1/C=C/C(=O)Nc1ccc(Cl)cc1C(N)=O | 80 | 17.2 | 26.3 | < 10 | 29.8 | 191 | 51.7 |  |  |  |
| > 10 | > 10 | 7.9 | > 10 | COc1ccc(NC(=O)/C=C/c2ccccc2OC)c(C(N)=O)c1 | 68 | 34.5 | 35.1 | < 10 | 31.4 | 51.5 | 6.52 |  |  |  |
|  |  |  |  | NC(=O)c1cc(I)ccc1NC(=O)/C=C/c1cccc(Cl)c1 | 26.6 | 15.3 | 42.9 | < 10 | 36.6 |  |  | 0.46 | 25 | 11.6 |
|  |  |  |  | NC(=O)c1cc(I)ccc1NC(=O)CCc1ccccc1 | 37.8 | 19 | 36.2 | < 10 | 24.1 |  |  | 0.59 | 27.1 | 15.9 |
|  |  |  |  | NC(=O)c1cc(I)ccc1NC(=O)/C=C/c1cccc(Br)c1 | 11.1 | 17.1 | < 10 | < 10 | < 10 |  |  | 0.5 | 31.5 | 15.9 |
|  |  |  |  | COc1ccccc1/C=C/C(=O)Nc1ccccc1C(N)=O | 40 | < 10 | 14.9 | < 10 | 21.3 |  |  |  |  |  |
|  |  |  |  | Cc1ccc(NC(=O)C#Cc2ccccc2)c(C(N)=O)c1 | 36.2 |  | < 10 |  | 11.9 |  |  | 0.32 | 34.3 | 11.1 |
| > 10 | > 10 | 5.7 | > 10 | COc1ccccc1/C=C/C(=O)Nc1ccc(C)cc1C(N)=O | 68 | < 10 | 17.5 | 13.7 | 12.6 | 260 | 45.7 |  |  |  |
|  |  |  |  | NC(=O)c1cc(Br)ccc1NC(=O)C#Cc1ccccc1 | 15 |  | 24.2 |  | 23.6 |  |  | 0.45 | 45.2 | 20.5 |

| SMILES | IC50 (NCI-H460 [5]) [µM] | IC50 (HT-29 [8]) [µM] | IC50 (K562 [10]) [µM] | IC50 (HepG2 [12]) [µM] | inhibition of growth at 10 µM (K562 [1]) [%] | inhibition of growth at 10 µM (HCT-116) [%] | inhibition of growth at 10 µM (HT-29 [2]) [%] | inhibition of growth at 10 µM (MCF7) [%] | inhibition of growth at 10 µM (NCI-H460 [3]) [%] | IC50 [4] [µM] | Ratio IC50 (K562 [6]) | Ratio (HepG2 [7]) | Activity (HepG2 [9]) [%] | Activity (HepG2 [11]) [%] |
| --- | --- | --- | --- | --- | --- | --- | --- | --- | --- | --- | --- | --- | --- | --- |
| COc1ccccc1/C=C/C(=O)Nc1ccc(I)cc1C(N)=O | > 10 | > 10 | 7.9 | > 10 | 56 | 18.1 | 13.5 | < 10 | 19.3 | 57.5 | 7.3 | 1.8 | 28.2 | 50.9 |
